According to the METLIN SMRT retention time set (Domingo-Almenara et al. 2019):

Assay: gradient 5% acetonitrile 3 min, to 50% in 2 min, to 85% in 15 min, held 3 min, 100 µL/min
Settings: column: Zorbax Extend-C18 2.1 x 50 mm; eluents: water / acetonitrile, 0.1% formic acid
Summary of the method: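 Retention time was recorded from adduct peaks, which were picked computationally and each inspected manually. Pure standards ran in mixtures of ~100 molecules on HPLC coupled to a quadrupole time-of-flight mass spectrometer, in positive and negative ionization mode, through a Zorbax Extend-C18 column (2.1 × 50 mm, 1.8 μm) at 100 μL/min. Eluents were water and acetonitrile, each with 0.1% formic acid.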

Point of comparison: O=S(=O)(Nc1ccc(Cn2cncn2)cc1)c1ccc(F)cc1, RP-LC retention time 701 s. Against it:
- CCOc1ccc(Cl)cc1S(=O)(=O)N1CCC(C(=O)NCCCOC)CC1 — higher, 761 s
- O=C(O)/C=C/c1ccc(Cn2ccnc2)cc1 — lower, 612 s
- CCc1ccc(-c2cc3c(=O)n(Cc4noc(CN5CCN(C)CC5)n4)ccn3n2)cc1 — lower, 647 s
- COc1ccccc1N1CCN(C(=O)C2CCN(c3nc(NC(C)=O)ns3)CC2)CC1 — lower, 641 s
- COC(=O)c1sccc1S(=O)(=O)N1CCC(C(N)=O)(N2CCCCC2)CC1 — lower, 580 s
- O=C(Cn1nc2c3cc(F)ccc3ncn2c1=O)Nc1ccc2c(c1)OCO2 — lower, 668 s
- O=C(Cc1cc(-c2ccccc2)on1)NCCN1CCOCC1 — lower, 566 s
- COc1ccc(NC(=O)CSc2nnc3c4sc(N5CCCC5)nc4ncn23)cc1Cl — higher, 798 s
- Cc1ccc(C(=O)N2CCC(c3nc(C4CC4)n[nH]3)CC2)s1 — lower, 600 s
- CCNC(=O)c1cn(-c2ccc(NC(=O)CC(C)C)cn2)cn1 — lower, 658 s
- O=C(Cc1cccc(F)c1)NC1(c2nc(-c3ccsc3)no2)CCCCC1 — lower, 589 s
- CCc1onc(C)c1C1CCCN1C(=O)Nc1ccccc1Cl (stereo not given) — higher, 907 s
- CCOC(=O)c1cc(S(=O)(=O)N2CCN(c3ncccn3)CC2)[nH]n1 — higher, 766 s
- COc1ccc(OC)c(-c2ccc(SCC(=O)Nc3cc(C)no3)nn2)c1 — higher, 754 s
- Cc1ccnc(C(=O)Nc2cccc(Cl)c2Cl)n1 — higher, 866 s
- Clc1ccc2nnc(Cc3ccccc3)n2n1 — higher, 739 s
- CCCCNC(=O)CCc1nc(N2CCCCCC2)c2c(C)noc2n1 — higher, 842 s
- Cc1nn(-c2ccc(-c3noc(C4CC4)n3)cc2)cc1C(=O)NC1CCCC1 — higher, 940 s
- Cc1ccc(N2C=C(C(=O)N3CCOCC3)S(=O)(=O)c3ccc(Cl)cc32)cc1Cl — higher, 970 s
- COc1cccc2c1OC1(C)CC2C(S(=O)(=O)c2ccc(C(C)C)cc2)C(=O)N1C (stereo not given) — higher, 1040 s
- CCc1cc(C(=O)Nc2ccc(C#N)cc2)nc2cc(-c3ccco3)nn12 — higher, 1130 s
- O=C(Cc1ccc(Cl)cc1)NCC(=O)Nc1nc2ccccc2[nH]1 — lower, 660 s
- Cc1ccccc1CNC(=O)C1(C)CCCN(C(=O)Nc2cccc(Cl)c2C)C1 (stereo not given) — higher, 1060 s
- Cc1ccn(-c2ccc(C(=O)NC(C)C)cn2)n1 — higher, 715 s
- COc1ccc(NC(=O)NC(C(=O)N2CCc3ccccc32)C(C)C)c(OC)c1 (stereo not given) — higher, 934 s
- Cc1ccc(-c2cc(N3CCN(C(=O)c4cc(C)cc(C)c4)CC3)ncn2)cc1 — higher, 731 s
- COc1ccc(CCC(=O)Nc2cc(-c3cccnc3)no2)cc1 — higher, 756 s
- CC(C)c1cc(C(=O)Nc2ccc(Cl)cc2)nc2ccnn12 — higher, 1060 s
- Cc1ccc2oc(-c3nnc(C(=O)NCCN4CCC(C)CC4)o3)c(C)c2c1 — lower, 674 s
- CCCc1noc(-c2ccnc(-n3cnc(C(=O)N4CCSCC4)c3)c2)n1 — higher, 873 s
- O=S(=O)(Nc1cccc(F)c1)c1ccccc1-c1nc(-c2ccccc2)no1 — higher, 1170 s
- Cc1cc(NC(=O)N2CCC(c3cc(N)on3)CC2)ccc1Br — higher, 790 s
- CC(C)(C)C(=O)N1CC(c2nc(-c3ccc(F)cc3)no2)C2(CCOCC2)C1 (stereo not given) — higher, 964 s
- Cc1nc(-c2ccc3c(c2)CCN3C(=O)Cc2cccs2)cs1 — higher, 965 s
- CCc1ccccc1NC(=O)CSc1cc(N2CCN(c3ccccc3OC)CC2)ncn1 — higher, 1040 s
- Cc1nc(NCCCn2ccnc2)nc(Nc2ccccc2)c1[N+](=O)[O-] — lower, 589 s
- Cc1ccc2c(=O)c(C(=O)N3CCCCC3)cn(CC(=O)NC3CCCCC3)c2n1 — higher, 731 s
- CCCn1ccc2sc(C)c(C(=O)N3CCN(C4CCCCC4)CC3)c2c1=O — lower, 606 s
- COc1cccc(CNC(=O)C2CCN(c3nnc4cccc(C)n34)CC2)c1 — lower, 642 s
- CCCCNC(=O)c1c(C)c2c(=O)n(CC(=O)Nc3ccc(Br)cc3)ncn2c1C — higher, 826 s
- COc1ccc(NC2=C(c3ccccc3)C(=O)N(Cc3ccccc3)C2=O)cc1 — higher, 1140 s
- CCc1c(C(=O)O)nnn1-c1ccc2c(c1)OCCO2 — higher, 702 s
- CCN(CC)CCCNC(=O)C1c2ccccc2C(=O)N1Cc1ccc(C)cc1 (stereo not given) — lower, 633 s
- O=C(c1cccs1)N1CCC2(CC1)NC(=O)N(Cc1ccc(F)cc1)C2=O — higher, 764 s
